Reference: PMC5980577 (CPT: Pharmacometrics & Systems Pharmacology, 2018)
Like-named read-outs stand apart in the source and are kept apart here.

Columns and labels:
OATP1B1 = target: T1, OATP1B1 (Homo sapiens, UniProt Q9Y6L6); assay: OATP1B1 inhibition, basic static model; format: in vitro ADME
T1 sequence (Q9Y6L6 1-691): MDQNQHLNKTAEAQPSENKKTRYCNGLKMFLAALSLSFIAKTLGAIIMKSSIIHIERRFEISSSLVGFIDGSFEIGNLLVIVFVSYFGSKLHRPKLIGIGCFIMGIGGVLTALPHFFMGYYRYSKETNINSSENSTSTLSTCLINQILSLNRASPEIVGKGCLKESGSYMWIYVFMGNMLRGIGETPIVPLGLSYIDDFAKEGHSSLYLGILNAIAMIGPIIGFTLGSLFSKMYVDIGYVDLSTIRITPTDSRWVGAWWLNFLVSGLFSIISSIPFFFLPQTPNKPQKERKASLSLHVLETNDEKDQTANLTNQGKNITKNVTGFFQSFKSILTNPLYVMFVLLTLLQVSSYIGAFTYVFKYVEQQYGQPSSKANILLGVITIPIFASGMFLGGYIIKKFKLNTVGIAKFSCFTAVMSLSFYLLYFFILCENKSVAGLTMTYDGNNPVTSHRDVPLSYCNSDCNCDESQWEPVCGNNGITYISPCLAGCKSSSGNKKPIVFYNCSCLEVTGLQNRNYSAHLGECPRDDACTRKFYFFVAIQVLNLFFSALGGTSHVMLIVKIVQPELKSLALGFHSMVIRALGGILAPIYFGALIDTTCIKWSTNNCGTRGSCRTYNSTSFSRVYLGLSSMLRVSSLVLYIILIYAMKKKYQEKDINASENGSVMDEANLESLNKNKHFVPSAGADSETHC

CYP3A4/5 [1] = details: in vitro data; cited from earlier work
CYP3A4/5 [2] = assay: CYP3A4/5 reversible; format: in vitro ADME; details: human
CYP2A6 = CYP2A6 contribution to metabolism and retrograde intrinsic clearance; format: in vitro ADME, human; details: retrograde approach
BCRP [3] = target: T2, BCRP (Homo sapiens, UniProt Q9UNQ0); assay: BCRP inhibition, basic static model; format: in vitro ADME
T2 sequence (Q9UNQ0 1-655): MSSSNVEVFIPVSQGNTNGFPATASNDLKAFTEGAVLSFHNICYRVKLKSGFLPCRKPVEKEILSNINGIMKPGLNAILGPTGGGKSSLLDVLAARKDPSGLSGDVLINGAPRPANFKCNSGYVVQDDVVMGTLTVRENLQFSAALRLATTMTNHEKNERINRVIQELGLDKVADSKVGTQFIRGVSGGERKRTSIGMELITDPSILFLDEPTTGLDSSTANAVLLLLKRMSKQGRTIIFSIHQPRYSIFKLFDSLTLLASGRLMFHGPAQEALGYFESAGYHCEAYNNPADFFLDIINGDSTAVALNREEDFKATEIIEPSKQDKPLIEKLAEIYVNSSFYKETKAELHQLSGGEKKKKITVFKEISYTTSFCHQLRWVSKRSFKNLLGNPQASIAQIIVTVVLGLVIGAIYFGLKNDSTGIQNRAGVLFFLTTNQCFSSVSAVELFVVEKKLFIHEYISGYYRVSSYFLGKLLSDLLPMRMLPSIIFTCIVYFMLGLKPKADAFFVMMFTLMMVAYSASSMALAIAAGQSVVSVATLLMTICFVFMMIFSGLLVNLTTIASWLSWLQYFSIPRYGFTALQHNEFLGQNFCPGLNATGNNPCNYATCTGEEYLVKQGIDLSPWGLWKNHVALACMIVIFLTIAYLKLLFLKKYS

[4] = Fraction unbound in microsomal incubation; format: in vitro ADME; details: microsomes (microsomal incubation)
CYP3A5 = CYP3A5 contribution to metabolism and retrograde intrinsic clearance; format: in vitro ADME, human; details: retrograde approach
[5] = doses studied 20–240 mg; cited from earlier work
[6] = multiple doses 80 mg once daily, no inducer
CYP2C9 = CYP2C9 contribution to metabolism and retrograde intrinsic clearance; format: in vitro ADME, human; details: retrograde approach
P-glycoprotein (P-gp) = P-glycoprotein (P-gp) (Homo sapiens, UniProt P08183); assay: In vitro efflux transporter substrate study, P-gp; format: in vitro ADME
Chain of P-glycoprotein (P-gp) (P08183 whole entry): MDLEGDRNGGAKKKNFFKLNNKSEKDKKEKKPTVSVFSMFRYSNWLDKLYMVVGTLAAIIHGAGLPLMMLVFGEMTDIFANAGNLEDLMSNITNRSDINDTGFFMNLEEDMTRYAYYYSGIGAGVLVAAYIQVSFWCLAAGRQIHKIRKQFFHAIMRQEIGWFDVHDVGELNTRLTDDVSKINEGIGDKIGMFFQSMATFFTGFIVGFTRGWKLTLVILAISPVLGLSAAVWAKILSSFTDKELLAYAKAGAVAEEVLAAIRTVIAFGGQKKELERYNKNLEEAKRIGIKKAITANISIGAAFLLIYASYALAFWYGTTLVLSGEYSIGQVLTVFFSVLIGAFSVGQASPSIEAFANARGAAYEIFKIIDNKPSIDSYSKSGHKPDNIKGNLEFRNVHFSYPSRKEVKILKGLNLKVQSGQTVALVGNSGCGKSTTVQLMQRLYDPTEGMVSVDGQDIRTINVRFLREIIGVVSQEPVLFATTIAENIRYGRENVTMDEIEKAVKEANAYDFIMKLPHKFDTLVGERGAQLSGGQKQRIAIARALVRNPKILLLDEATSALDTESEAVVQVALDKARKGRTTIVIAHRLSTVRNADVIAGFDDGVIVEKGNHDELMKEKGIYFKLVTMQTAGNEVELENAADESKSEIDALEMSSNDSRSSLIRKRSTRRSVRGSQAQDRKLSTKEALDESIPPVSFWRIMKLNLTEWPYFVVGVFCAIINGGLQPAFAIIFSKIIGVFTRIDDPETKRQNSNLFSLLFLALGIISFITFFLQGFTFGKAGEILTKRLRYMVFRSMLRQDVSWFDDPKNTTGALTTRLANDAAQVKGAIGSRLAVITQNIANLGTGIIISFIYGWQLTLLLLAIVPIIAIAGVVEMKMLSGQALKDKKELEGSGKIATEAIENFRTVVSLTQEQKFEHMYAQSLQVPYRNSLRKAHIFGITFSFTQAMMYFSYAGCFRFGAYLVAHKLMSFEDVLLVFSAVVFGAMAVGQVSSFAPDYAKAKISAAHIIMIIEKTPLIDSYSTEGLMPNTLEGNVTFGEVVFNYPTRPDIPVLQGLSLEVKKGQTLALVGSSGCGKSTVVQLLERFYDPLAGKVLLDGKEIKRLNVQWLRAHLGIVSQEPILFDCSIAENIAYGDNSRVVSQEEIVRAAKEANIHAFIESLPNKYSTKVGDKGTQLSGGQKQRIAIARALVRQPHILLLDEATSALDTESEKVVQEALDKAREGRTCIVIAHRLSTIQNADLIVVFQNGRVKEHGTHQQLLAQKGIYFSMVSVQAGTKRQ

CYP3A4 = CYP3A4 contribution to metabolism and retrograde intrinsic clearance; format: in vitro ADME, human; details: retrograde approach
CYP2C8 = target: T3, CYP2C8 (Homo sapiens, UniProt P10632); assay: CYP2C8 reversible; format: in vitro ADME
T3 sequence (P10632 1-490): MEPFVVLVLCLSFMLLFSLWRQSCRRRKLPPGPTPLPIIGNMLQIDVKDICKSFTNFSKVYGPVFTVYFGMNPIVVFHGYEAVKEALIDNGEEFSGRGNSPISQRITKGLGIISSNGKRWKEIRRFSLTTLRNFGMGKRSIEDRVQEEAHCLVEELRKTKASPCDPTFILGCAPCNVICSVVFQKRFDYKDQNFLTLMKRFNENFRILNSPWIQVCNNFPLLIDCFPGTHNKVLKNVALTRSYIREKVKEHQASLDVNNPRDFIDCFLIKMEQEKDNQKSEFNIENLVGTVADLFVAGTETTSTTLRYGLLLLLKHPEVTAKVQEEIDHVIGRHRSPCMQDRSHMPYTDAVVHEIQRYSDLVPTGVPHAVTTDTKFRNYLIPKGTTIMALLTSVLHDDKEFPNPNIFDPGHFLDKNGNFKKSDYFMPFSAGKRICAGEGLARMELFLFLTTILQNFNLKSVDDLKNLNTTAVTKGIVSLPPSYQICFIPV

[7] = cited from earlier work
[8] = format: in vivo; details: human, plasma, oral, 80 mg
CYP2E1 = CYP2E1 contribution to metabolism and retrograde intrinsic clearance; format: in vitro ADME, human; details: retrograde approach
BCRP [9] = target: T2, BCRP; assay: In vitro efflux transporter substrate study, BCRP; format: in vitro ADME
CYP1A2 = CYP1A2 contribution to metabolism and retrograde intrinsic clearance; format: in vitro ADME, human; details: retrograde approach
[10] = Circulating metabolites measured in plasma in clinical studies; format: in vivo, human; details: all studies

C=CC(=O)Nc1cc(Nc2nccc(-c3cn(C)c4ccccc34)n2)c(OC)cc1N(C)CCN(C)C [Osimertinib]
Ki (OATP1B1): 22 µM
Ki (OATP1B1; human): 52.5 µM
fraction metabolized (fm) CYP3A (CYP3A4/5 [1]): 54%
Ki (CYP3A4/5 [2]): 2.55 µM
CYP2A6 CLint (CYP2A6): 1.749 µL/min/pmol of isoform
Ki (BCRP [3]): 2 µM
BCRP Potential for DDI (BCRP [3]; basic static model): likely
fraction unbound [4]: 0.0261
CYP3A5 CLint (CYP3A5): 0.210 µL/min/pmol of isoform
maximum tolerated dose [5]: no maximum tolerated dose was reached
Css,max Geo.mean (range) [%CV], observed [6]: 545 (258 to 1,220) nM
CYP2C9 CLint (CYP2C9): 0.479 µL/min/pmol of isoform
substrate for P-gp (P-glycoprotein (P-gp)): substrate
CYP3A4 CLint (CYP3A4): 0.731 µL/min/pmol of isoform
Ki (CYP2C8): 11.4 µM
median (range) Tmax [7]: 6 (3–24) hours
median time of maximum plasma concentration (Tmax) ([7]; oncology patients): 6 h
oral clearance ([7]; oncology patients): 14.2 L/h
volume of distribution ([7]; oncology patients): around 997 L
increase of Cmax and AUC with dose ([7]; single oral doses of 20 to 240 mg): dose proportional
AUC [8]: 11.5 µM·h
CYP2E1 CLint (CYP2E1): 0.111 µL/min/pmol of isoform
substrate for BCRP (BCRP [9]): substrate
CYP1A2 CLint (CYP1A2): 0.520 µL/min/pmol of isoform

C=CC(=O)Nc1cc(Nc2nccc(-c3cn(C)c4ccccc34)n2)c(OC)cc1N(C)CCNC [AZ7550]
contribution of metabolite to total drug-related exposure [10]: < 10%
